# Test system: C. tyrobutyricum
# Experiment: Batch fermentation in stirred-tank bioreactor on glucose and xylose with acetate and benzyl viologen added
# Type: cell-based, Clostridium tyrobutyricum
# Conditions: in the presence of 3.75 μM BV (0.30 g/g before BV addition); pH 6.0, ~18 g/L acetate added at ~48 h
# Method: Batch fermentation in a stirred-tank bioreactor with C. tyrobutyricum grown on glucose and xylose at pH 6.0 was studied with the addition of ˜18 g/L acetate and 3.75 μM benzyl viologen (BV) at ˜48 h. With BV and acetate addition, C. tyrobutyricum converted glucose, xylose, and acetate simultaneously to butyrate as the sole fermentation product with close to 100% purity at an overall yield of ˜0.48 g/g substrate. Almost all glucose and acetate (both produced before BV addition and externally added) were consumed to produce butyrate, reaching a high concentration of ˜46 g/L. Butyric acid yield from sugars increased from 0.30 g/g before BV addition to 0.52 g/g from both sugars and acetate consumed in the presence of 3.75 μM BV. The theoretical yield of butyric acid from glucose in the fermentation is 0.8 mol/mol (0.39 g/g) when acetate (0.4 mol/mol) and carbon dioxide (2 mol/mol) are also produced as co-products. In contrast, butyrate formation from acetate has a theoretical yield of 0.73 g/g (0.5 mol/mol), which is 87.2% higher than that from glucose, because no substrate carbon is lost in carbon dioxide. In addition to the higher butyrate yield, butyrate was produced as the only main product in the fermentation with a high acid purity of 98.3%, which was much higher than ˜80% in typical butyric acid fermentation. […]
compound,measurement,value
"c1ccc(C[n+]2ccc(-c3cc[n+](Cc4ccccc4)cc3)cc2)cc1 [BV, benzyl viologen]",Butyric acid yield from both sugars and acetate consumed,0.52 g/g
